What was measured:
human CB1 receptor = molecular target: T1, human CB1 receptor (Homo sapiens, UniProt P21554); assay: Radioligand binding assay at human CB1 receptor ([^3H]CP55940 displacement, Eurofins Discovery); details: for Ki: Cheng Prusoff from IC50, [^3H]CP55940 radioligand, read-out: hCB1 Ki; for times more active than (−)-trans-Δ^9-THCV against CB1 receptor: comparator Δ^9-THCV (Ki 75.4 nM, literature); for times more active than (−)-trans-Δ^9-THC against CB1 receptor: comparator Δ^9-THC (Ki=40 nM, literature)
T1 construct: Eurofins Discovery (contract assay)
T1 sequence (P21554 whole entry): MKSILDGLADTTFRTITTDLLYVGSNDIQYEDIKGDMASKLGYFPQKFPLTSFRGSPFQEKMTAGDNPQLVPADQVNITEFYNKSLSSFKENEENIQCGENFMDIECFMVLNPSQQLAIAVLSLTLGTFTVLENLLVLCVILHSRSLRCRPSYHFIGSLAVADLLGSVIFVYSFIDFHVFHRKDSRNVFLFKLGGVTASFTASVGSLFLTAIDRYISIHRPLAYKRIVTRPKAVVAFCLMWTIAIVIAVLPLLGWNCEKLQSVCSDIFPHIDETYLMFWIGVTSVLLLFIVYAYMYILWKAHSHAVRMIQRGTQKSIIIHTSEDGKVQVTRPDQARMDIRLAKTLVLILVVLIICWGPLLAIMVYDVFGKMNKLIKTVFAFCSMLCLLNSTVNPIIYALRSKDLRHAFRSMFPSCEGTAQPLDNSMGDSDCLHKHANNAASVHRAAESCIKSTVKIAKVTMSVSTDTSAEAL
Experimental: 2.2.4 Binding affinity at human CB1 and CB2 receptors. The binding affinity of (−)-trans-Δ^9-THCB against purified human CB1 and CB2 receptors was determined in a radioligand binding assay. The capability of the ligand to displace radiolabeled [^3H] […] Binding at CB1 and CB2 Receptors. The binding affinity of (−)-trans-Δ^9-THCB against human CB1 and CB2 receptors was determined in a radioligand binding assay performed by Eurofins Discovery. The compound was tested at ten concentrations, ranging from 1 nM to 30 μM, in duplicate. The compound binding was calculated as a % inhibition of the binding of a radioactively labeled ligand specific for each target. […] The results were expressed as a percent inhibition of control specific binding obtained in the presence of the tested compounds using eq. 1.
The IC50 values (concentration causing a half-maximal inhibition of control specific binding) were determined by non-linear regression analysis of the competition curves generated with mean replicate values (eq. 2)^55.
Where Y is the specific binding, A is the left asymptote of the curve, D is the right asymptote f the curve, C is the compound concentration, C50 is the IC50 value and nH is the slope factor. […] The inhibition constants (Ki) were calculated using the Cheng Prusoff equation: […]
3.1.4 Binding affinity at human CB1 and CB2 receptors. […] The binding affinity of (−)-trans-Δ^9-THCP against human CB1 and CB2 receptors was assessed by Eurofins Discovery using a radioligand binding assay. […] Eq. 1 was employed to calculate the percent inhibition of control specific binding obtained in the presence of the tested compounds.
A non-linear regression analysis of the competition curves generated with mean replicate values (eq. 2) was used to calculate the IC50 values (concentration causing a half-maximal inhibition of control specific binding)^51.
Where Y is the specific binding, A is the left asymptote of the curve, D is the right asymptote f the curve, C is the compound concentration, C50 is the IC50 value and nH is the slope factor. […] The inhibition constants (Ki) were determined using the Cheng Prusoff equation (eq. 3):
[formula] • where L is the concentration of the radioligand, and KD is the affinity of the radioligand for the receptor.

C57BL6/J mice [1] = assay: Tetrad: open field test (spontaneous/motor activity); format: in vivo; details: mean±SEM
Experimental: (§1) Mice (n=4) were treated with Δ^9-THCB (10 and 20 mg/kg) or vehicle (0.9% saline and 0.05% DMSO) by intraperitoneal (i.p.) administration. Mice were evaluated for hypomotility (open field test), hypothermia (body temperature test), antinociceptive (hot plate test), and cataleptic effects (bar test), using the tetrad tests as described in the protocol by Metna-Laurent M. et al.^62 Statistical analysis was performed using the Kruskall-Wallis test and Dunn's post hoc tests.
Open field test. The open field test (OFT) was performed 30 min after drug or vehicle injection. The apparatus was cleaned before each test using a 70% EtOH solution. After randomly assigning naïve mice to a treatment group, the operator started to record animal behaviors, which were stored and analyzed using an automated behavioral tracking system (Smart v3.0, Panlab Harvard Apparatus). Mice were placed in an OFT arena (1×w×h: 44 cm×44 cm×30 cm), and ambulatory activity (total distance travelled in cm), was recorded for 15 min and analyzed.
(§2) Male C57BL6/J mice (7 weeks old; n=5) were treated with Δ^9-THCP (10, 5 and 2.5 mg/kg) or vehicle (1:1:18; ethanol:Kolliphor EL:0.9% saline) by i.p. administration. Mice were evaluated for hypomotility (open field test), hypothermia (body temperature), antinociceptive (hot plate test), and cataleptic (bar test) effects, using the tetrad tests^58. Statistical analysis was performed using the Kruskall-Wallis test and Dunn's post hoc tests.
Openfield. The open field test was used for the evaluation of motor activity. Behavioral assays were performed 30 min after drug (or vehicle) injection. The apparatus was cleaned before each behavioral session by solution of 70% ethanol. Naïve mice were randomly assigned to a treatment group. Behaviors were recorded, stored, and analyzed using an automated behavioral tracking system (Smart v3.0, Panlab Harvard Apparatus). Mice were placed in an OFT arena (1×w×h: 25 cm×25 cm), and ambulatory activity (total distance travelled in centimeter), were recorded for 15 minutes and analyzed.

C57BL6/J mice [2] = assay: Tetrad: bar test (catalepsy); format: in vivo; details: mean±SEM
Experimental: as §1
Bar test. The bar used was a 40 cm long and 0.4 cm wide in diameter glass rod, which was horizontally elevated by 5 cm above the surface. Both forelimbs of the mouse were positioned on the bar and its hind legs on the floor of the cage, ensuring that the animal was not lying down on the floor. The chronometer was stopped when the mouse descended from the bar (i.e., when the two forepaws touched the floor) or after the 10 min cut-off time. Catalepsy was measured as the time duration each mouse held the bar by both his forelimbs (latency for moving in seconds).
as §2
Bar test. The bar test was used for the evaluation of catalepsy. Bar was a 40 cm in length and 0.4 cm in diameter glass rod, which was horizontally elevated by 5 cm above the surface. Both forelimbs of mice were positioned on the bar and its hind legs on the floor of the cage, ensuring that the mouse was not lying down on the floor. The chronometer was stopped when the mouse descends from the bar (i.e., when the two forepaws touched the floor) or when 10 min have elapsed (i.e., cut-off time). Catalepsy was measured as the time duration each mouse held the elevated bar by both his forelimbs (latency for moving in seconds).

C57BL6/J mice [3] = assay: Tetrad: body (rectal) temperature test; format: in vivo; details: mean±SEM; for change in rectal temperature: 50 min after administration vs basal, n=4, vehicle 0.53; for change in body temperature: difference to basal temperature, n=5, vehicle 0.40
Experimental: as §1
Body temperature test. A probe was gently inserted for 1 cm into the mouse rectum after the animal had been immobilized. The probe was washed and cleaned with 70% ethanol and the dried with a paper towel. The body temperature was measured after stabilization of the value in ° C. in basal conditions and at 50 minutes after drug or vehicle administration.
as §2
Body temperature. The mouse was immobilized and the probe gently inserted for 1 cm into the rectum until stabilization of temperature. Between each mouse the probe was cleaned with 70% ethanol and dried with paper towel.

SMILES: CCCCc1cc(O)c2c(c1)OC(C)(C)[C@@H]1CCC(C)=C[C@@H]21 [Δ^9-THCB, (6aR,10aR)-3-butyl-6,6,9-trimethyl-6a,7,8,10a-tetrahydro-6H-benzo[c]chromen-1-ol]
- Ki (human CB1 receptor): 15 nM
- IC50 (human CB1 receptor; displacement of [^3H]CP55940, ten concentrations 1 nM to 30 μM, duplicate, SD within ±10%, read-out: hCB1 IC50): 28 nM
- times more active than (−)-trans-Δ^9-THCV against CB1 receptor (human CB1 receptor; ratio of Ki): five times more active
- open field: distance travelled (C57BL6/J mice [1]; Δ^9-THCB 10 mg/kg i.p., 30 min after injection, 15 min, n=4, vehicle 3283): 3220 cm
- open field: distance travelled (C57BL6/J mice [1]; Δ^9-THCB 20 mg/kg i.p., 30 min after injection, 15 min, n=4, vehicle 3283): 3591 cm
- bar test: latency for moving from the catalepsy bar (C57BL6/J mice [2]; Δ^9-THCB 10 mg/kg i.p., n=4, vehicle 3.50): 3.0 s
- bar test: latency for moving from the catalepsy bar (C57BL6/J mice [2]; Δ^9-THCB 20 mg/kg i.p., n=4, vehicle 3.50): 13.0 s
- change in rectal temperature (C57BL6/J mice [3]; Δ^9-THCB 10 mg/kg i.p.): −0.28 °C
- change in rectal temperature (C57BL6/J mice [3]; Δ^9-THCB 20 mg/kg i.p.): 0.40 °C

SMILES: CCCCCCCc1cc(O)c2c(c1)OC(C)(C)[C@@H]1CCC(C)=C[C@@H]21 [Δ^9-THCP, (6aR,10aR)-3-heptyl-6,6,9-trimethyl-6a,7,8,10a-tetrahydro-6H-benzo[c]chromen-1-ol]
- Ki (human CB1 receptor): 1.2 nM
- binding affinity to CB1 among the compounds (in words) (human CB1 receptor; comparison of alkyl chain homologues): highest binding affinity to CB1
- times more active than (−)-trans-Δ^9-THC against CB1 receptor (human CB1 receptor; ratio of Ki): more than thirty-fold higher
- times more active than (−)-trans-Δ^9-THC against CB1 receptor (human CB1 receptor; ratio of Ki, listed as (−)-trans-Δ^9-THCP): 33 times
- times more active than (−)-trans-Δ^9-THCB against CB1 receptor (human CB1 receptor; ratio of Ki, comparator Δ^9-THCB (Ki 15 nM)): 13 times
- times more active than (−)-trans-Δ^9-THCV against CB1 receptor (human CB1 receptor; ratio of Ki): 63 times
- open field: distance travelled (C57BL6/J mice [1]; Δ^9-THCP 2.5 mg/kg i.p., n=5, vehicle 6888): 4072 cm
- open field: distance travelled (C57BL6/J mice [1]; Δ^9-THCP 5 mg/kg i.p., n=5, vehicle 6888): 127.5 cm
- open field: distance travelled (C57BL6/J mice [1]; Δ^9-THCP 10 mg/kg i.p., n=5, vehicle 6888): 166.8 cm
- bar test: latency for moving from the catalepsy bar (C57BL6/J mice [2]; Δ^9-THCP 2.5 mg/kg i.p., 10 min cut-off, n=5, vehicle 15.20): 346.1 s
- bar test: latency for moving from the catalepsy bar (C57BL6/J mice [2]; Δ^9-THCP 5 mg/kg i.p., 10 min cut-off, n=5, vehicle 15.20): 493.4 s
- bar test: latency for moving from the catalepsy bar (C57BL6/J mice [2]; Δ^9-THCP 10 mg/kg i.p., 10 min cut-off, n=5, vehicle 15.20): 484.5 s
- change in body temperature (C57BL6/J mice [3]; Δ^9-THCP 2.5 mg/kg i.p.): −4.12 °C
- change in body temperature (C57BL6/J mice [3]; Δ^9-THCP 5 mg/kg i.p.): −5.28 °C
- change in body temperature (C57BL6/J mice [3]; Δ^9-THCP 10 mg/kg i.p.): −7.10 °C

Reference: patent US12606508B2, “Cannabis extracts and uses thereof” (priority 2020, dated 2026)
